We go through two compounds from PMC11325555, “Interaction of Bisphenol A and Its Analogs with Estrogen and Androgen Receptor from Atlantic Cod (Gadus morhua)” (Environmental Science & Technology, 2024).

The structures appear in SMILES notation.

The target in series [1] is T1, Atlantic cod androgen receptor alpha (gmAra) LBD (Gadus morhua, UniProt D5FIC7).
T1 sequence (D5FIC7 409-718): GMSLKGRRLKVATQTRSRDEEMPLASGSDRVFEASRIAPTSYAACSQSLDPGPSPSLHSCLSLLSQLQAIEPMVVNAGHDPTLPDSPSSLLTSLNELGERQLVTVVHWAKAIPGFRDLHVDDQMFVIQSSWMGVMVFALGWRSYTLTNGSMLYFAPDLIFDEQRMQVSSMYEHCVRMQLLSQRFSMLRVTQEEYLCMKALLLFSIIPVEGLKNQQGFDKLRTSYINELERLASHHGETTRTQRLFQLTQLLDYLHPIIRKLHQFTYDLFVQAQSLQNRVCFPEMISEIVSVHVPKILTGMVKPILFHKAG
Nature of the series: Luciferase reporter gene assay, gmAra antagonism (antiandrogenic activity), coexposure with 5 nM testosterone. The format is cell-based. The following applies: BPs 0.003–50 μM with 5 nM testosterone. Here is the method: (§1) Ligand activation of gmEra and gmAra was studied with a luciferase reporter gene assay in COS-7 cells transiently transfected with the pCMX-GAL4(DBD)-gmEra(LBD) or pCMX-GAL4(DBD)-gmAra(LBD) plasmid by using the TransIT-LT1 reagent (TransIT-LT1 Transfection Reagent, Mirus). Cells were seeded into 96-well plates (5000 cells/well) and incubated for 24 h before cotransfection with the plasmid mixture (100 ng/well). The plasmid mixture contained GAL4-UAS luciferase reporter plasmid (tk-(MH100)x4 luc), the pCMX-GAL4(DBD)-gmEra(LBD) or pCMX-GAL4(DBD)-gmAra(LBD) receptor plasmids (2:1 reporter:receptor plasmid mass ratio), and a plasmid constitutively producing the β-galactosidase enzyme used for normalization of transfection efficiency (pCMV- β-Gal). […] The maximum DMSO/methanol concentrations in the exposure wells were 0.5% (v/v) in DMEM medium without phenol red (Sigma-Aldrich). After exposure, cells were lysed, and luciferase and beta-galactosidase activities were measured as luminescence and absorbance (420 nm) after the addition of luciferin and ONPG substrates, respectively, using an Enspire Multimode plate reader (PerkinElmer, Waltham, Massachusetts, USA).
(§2) The dose–response curves were created using nonlinear regression and the four-parameter logistic fit in Graphpad Prism v.9. *p < 0.05 versus solvent control by ANOVA and Dunnett’s multiple comparison post hoc test.

The next series relates to COS-7 cells. The series can be described thus: Cytotoxicity toward COS-7 cells (resazurin and CFDA-AM assays). The following applies: antiandrogenic reporter assay conditions (with testosterone); highest concentration used; 24 h. The source says: The cytotoxicity of the test compounds toward COS-7 cells was monitored by measuring the metabolic activity and membrane integrity through the conversion of resazurin and 5-carboxyfluorescein diacetate acetoxymethyl ester (CFDA-AM), respectively, as described previously by Pérez-Albaladejo et al.[54] […]
used as a negative control.
Figure S2. Assessing metabolic activity (resazurin) and cell membrane integrity (CFDA-AM) in COS-7 cells after BP exposures. COS-7 cells were exposed to three concentrations of each BP, as well as three concentrations […]
exposed at 37 °C and 5 % CO2 for 24 hours. Cytotoxicity is indicated by a reduction in the fluorescent signal (denoted as % Cell survival) relative to the solvent control (DMSO, dotted line) adjusted to 100 %. A reduction in cell viability exceeding 20 % is generally regarded as cytotoxic (indicated with a red dotted line) (ISO, I. 2009.
10993–5: 2009 Biological evaluation of medical devices—part 5: tests for in vitro cytotoxicity. International Organization for Standardization, Geneva.).
(1 picture or pasted object on this page, not shown here)
In general terms: Resazurin is reduced to fluorescent resorufin, in cell work by metabolically active cells.

Series [2] concerns the target T2, Atlantic cod estrogen receptor alpha (gmEra) LBD (Gadus morhua, UniProt U5ILH7).
T2 sequence (U5ILH7 170-455): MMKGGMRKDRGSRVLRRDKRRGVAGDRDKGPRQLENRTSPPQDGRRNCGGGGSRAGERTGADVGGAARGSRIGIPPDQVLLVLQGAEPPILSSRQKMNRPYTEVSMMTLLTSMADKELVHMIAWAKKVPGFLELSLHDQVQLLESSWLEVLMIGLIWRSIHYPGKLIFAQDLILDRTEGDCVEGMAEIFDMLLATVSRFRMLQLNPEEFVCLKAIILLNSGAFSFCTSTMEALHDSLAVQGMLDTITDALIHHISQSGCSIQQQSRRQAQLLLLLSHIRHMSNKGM
The series can be described thus: Luciferase reporter gene assay, gmEra antagonism (antiestrogenic activity), coexposure with 3 nM EE2. The series is classed as cell-based. The following applies: coexposure with EE2 (3 nM, EC20). Here is the method:
as §1
To investigate potential antiestrogenic effects, COS-7 cells transiently expressing gmEra LBD were exposed to the 12 bisphenols in binary mixtures with a fixed concentration of EE2 (3 nM, corresponding to EC20) (Figure 2 and Table 1).
as §2

For the compound `Oc1ccc(C2(c3ccc(O)cc3)c3ccccc3-c3ccccc32)cc1` [BPFL], the “effect on testosterone-mediated gmAra activity, result in words” value in series [1] is “significant increases in gmAr activity”.

With `CC(C)(c1ccc(OCC2CO2)cc1)c1ccc(OCC2CO2)cc1` (stereo not drawn) [BADGE], the “cytotoxic concentration in COS-7 cells” value in the series with COS-7 cells amounted to 50 µM. In series [2], the “antiestrogenic effect on gmEra, result in words” value is listed as “no antiestrogenic effects”.
